Reference: US20240327364A1, “THERAPEUTIC TARGETING OF GPR68 TO INDUCE FERROPTOSIS” (University Of Maryland, Baltimore, priority 2023, published 2024)

What was measured:
CCR3 = target: T1, CCR3 (Homo sapiens, UniProt P51677); experiment: GPCR Profiler; type: cell-based
T1 construct: host or cells: Chem-1 cells with Gα15

PCTK2 = target: T2, PCTK2 (Homo sapiens, UniProt Q00537); experiment: KinomeScan; type: binding; details: read-out: % Control
T2 construct: purchased DiscoveRx

MRGX2 = target: T3, MRGX2 (Homo sapiens, UniProt Q96LB1); experiment: GPCR Profiler; type: cell-based
T3 construct: host or cells: Chem-1 cells expressing Gα15
T3 sequence (Q96LB1 whole entry, species assumed): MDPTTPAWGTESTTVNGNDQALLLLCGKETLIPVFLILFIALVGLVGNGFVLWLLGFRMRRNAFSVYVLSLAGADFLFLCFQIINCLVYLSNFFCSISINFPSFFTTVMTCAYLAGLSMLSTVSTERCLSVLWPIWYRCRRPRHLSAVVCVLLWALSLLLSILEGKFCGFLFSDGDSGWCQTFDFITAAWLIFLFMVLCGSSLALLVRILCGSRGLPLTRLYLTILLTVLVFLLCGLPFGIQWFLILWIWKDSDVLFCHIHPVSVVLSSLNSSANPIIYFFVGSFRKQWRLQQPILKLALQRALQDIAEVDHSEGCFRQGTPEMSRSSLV

NEK1 = target: T4, NEK1 (Homo sapiens, UniProt Q96PY6); experiment: KinomeScan; type: binding; details: read-out: % Control
T4 construct: purchased DiscoveRx
T4 sequence (Q96PY6 whole entry): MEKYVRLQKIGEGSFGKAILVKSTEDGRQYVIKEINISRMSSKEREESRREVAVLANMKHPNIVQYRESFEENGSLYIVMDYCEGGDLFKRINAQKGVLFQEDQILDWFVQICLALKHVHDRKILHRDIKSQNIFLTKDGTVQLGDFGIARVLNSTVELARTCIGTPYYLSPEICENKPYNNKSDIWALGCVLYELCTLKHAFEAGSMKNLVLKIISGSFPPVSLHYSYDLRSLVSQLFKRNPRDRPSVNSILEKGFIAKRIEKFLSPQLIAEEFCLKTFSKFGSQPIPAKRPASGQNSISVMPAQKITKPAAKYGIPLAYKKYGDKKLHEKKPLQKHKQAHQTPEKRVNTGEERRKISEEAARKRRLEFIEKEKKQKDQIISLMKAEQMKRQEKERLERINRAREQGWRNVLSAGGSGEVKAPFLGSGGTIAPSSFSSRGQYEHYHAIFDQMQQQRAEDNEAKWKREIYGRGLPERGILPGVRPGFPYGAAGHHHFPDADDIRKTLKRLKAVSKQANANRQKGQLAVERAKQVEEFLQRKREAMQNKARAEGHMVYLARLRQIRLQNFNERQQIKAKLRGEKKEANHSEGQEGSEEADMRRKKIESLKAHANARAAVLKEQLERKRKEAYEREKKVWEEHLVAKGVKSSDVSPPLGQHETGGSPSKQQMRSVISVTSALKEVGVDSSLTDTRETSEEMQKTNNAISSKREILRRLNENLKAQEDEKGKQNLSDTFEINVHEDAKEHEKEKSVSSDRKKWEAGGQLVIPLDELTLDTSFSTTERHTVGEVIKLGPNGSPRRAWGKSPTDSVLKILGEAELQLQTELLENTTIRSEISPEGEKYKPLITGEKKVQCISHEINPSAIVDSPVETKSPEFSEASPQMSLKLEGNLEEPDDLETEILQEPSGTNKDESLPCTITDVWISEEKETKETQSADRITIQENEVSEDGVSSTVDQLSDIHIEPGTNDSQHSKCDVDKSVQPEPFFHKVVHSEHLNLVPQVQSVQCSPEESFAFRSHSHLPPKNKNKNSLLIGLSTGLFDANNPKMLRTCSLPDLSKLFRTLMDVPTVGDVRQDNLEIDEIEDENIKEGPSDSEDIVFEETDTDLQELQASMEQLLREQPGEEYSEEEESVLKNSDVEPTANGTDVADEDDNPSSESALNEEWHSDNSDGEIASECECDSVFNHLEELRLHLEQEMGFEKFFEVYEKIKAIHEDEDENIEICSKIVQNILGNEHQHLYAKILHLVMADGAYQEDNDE

HUNK = target: T5, HUNK (Homo sapiens, UniProt P57058); experiment: KinomeScan; type: binding; details: read-out: % Control
T5 construct: purchased DiscoveRx (Fremont, CA)
T5 sequence (P57058 whole entry): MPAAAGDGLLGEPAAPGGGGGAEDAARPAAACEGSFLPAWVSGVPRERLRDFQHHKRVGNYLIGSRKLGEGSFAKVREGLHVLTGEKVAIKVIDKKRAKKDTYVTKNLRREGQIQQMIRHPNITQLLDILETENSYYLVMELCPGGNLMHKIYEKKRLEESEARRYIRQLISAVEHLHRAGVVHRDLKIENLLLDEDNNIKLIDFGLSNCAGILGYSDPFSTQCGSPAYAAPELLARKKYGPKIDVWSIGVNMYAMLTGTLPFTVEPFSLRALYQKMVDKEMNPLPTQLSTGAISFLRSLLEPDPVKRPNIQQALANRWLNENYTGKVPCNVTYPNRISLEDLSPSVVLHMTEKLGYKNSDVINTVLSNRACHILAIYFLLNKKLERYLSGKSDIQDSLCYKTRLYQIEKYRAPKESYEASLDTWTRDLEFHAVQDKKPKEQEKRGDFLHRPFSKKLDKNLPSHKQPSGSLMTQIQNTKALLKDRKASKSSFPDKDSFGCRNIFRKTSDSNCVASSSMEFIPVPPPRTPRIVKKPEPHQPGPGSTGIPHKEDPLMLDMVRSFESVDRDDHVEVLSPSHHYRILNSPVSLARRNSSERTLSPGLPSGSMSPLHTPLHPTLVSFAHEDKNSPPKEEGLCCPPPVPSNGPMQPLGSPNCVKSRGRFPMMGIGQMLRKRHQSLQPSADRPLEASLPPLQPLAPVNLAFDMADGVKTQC

PIPSK1A = target: T6, PIPSK1A (Homo sapiens, UniProt Q99755); experiment: KinomeScan; type: binding; details: read-out: % Control
T6 construct: purchased DiscoveRx (Fremont, CA)
T6 sequence (Q99755 whole entry): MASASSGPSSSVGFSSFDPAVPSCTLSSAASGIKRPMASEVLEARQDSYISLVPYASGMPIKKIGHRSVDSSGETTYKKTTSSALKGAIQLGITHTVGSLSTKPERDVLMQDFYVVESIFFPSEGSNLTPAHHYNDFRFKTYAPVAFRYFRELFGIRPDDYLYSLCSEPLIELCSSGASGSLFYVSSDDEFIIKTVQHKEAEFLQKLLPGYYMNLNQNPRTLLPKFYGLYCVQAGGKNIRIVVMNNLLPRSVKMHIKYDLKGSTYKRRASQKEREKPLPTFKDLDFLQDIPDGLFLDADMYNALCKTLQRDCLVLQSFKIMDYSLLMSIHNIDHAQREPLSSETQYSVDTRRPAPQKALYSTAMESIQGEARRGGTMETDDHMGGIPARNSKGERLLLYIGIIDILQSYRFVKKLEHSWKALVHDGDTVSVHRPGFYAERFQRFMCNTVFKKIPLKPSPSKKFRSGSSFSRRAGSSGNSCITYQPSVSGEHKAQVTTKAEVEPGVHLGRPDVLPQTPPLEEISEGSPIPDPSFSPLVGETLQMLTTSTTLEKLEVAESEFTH

TXK = target: T7, TXK (Homo sapiens, UniProt P42681); experiment: KinomeScan; type: binding; details: read-out: % Control
T7 construct: purchased DiscoveRx
T7 sequence (P42681 whole entry): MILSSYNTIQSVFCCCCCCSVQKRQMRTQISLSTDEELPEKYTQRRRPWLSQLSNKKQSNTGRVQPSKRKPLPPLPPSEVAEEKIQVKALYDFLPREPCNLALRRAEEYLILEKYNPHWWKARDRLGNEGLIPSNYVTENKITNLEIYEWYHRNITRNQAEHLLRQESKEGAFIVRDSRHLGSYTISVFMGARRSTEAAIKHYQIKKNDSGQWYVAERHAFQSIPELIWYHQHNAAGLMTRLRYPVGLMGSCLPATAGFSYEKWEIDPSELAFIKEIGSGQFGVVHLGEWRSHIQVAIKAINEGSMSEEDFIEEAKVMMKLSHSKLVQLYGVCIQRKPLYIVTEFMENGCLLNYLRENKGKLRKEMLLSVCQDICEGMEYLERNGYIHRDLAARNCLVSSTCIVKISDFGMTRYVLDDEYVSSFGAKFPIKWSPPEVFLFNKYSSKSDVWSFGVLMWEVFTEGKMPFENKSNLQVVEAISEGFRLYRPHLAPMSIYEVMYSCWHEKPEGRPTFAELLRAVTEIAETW

[1] = target: T8, ABL1(M351T)-phosphorylated (Homo sapiens, UniProt P00519, M351T); experiment: KinomeScan; type: binding; details: read-out: % Control
T8 construct: purchased DiscoveRx

U87 spheroids = experiment: GBM spheroid assay; type: cell-based, human
Description: One thousand cells per well were plated in an ultra-low attachment, round-bottomed, 96-well plate, and spheroids were allowed to form for 3 days. Wells were then exposed to concentrations of vehicle, OGM2 or TMZ or a combination for 3 days. Spheroids were imaged in brightfield at 10× using z-stacks that were collapsed into z-projections in the Gen5 software using the LionheartFx (BioTek™). Automated measurements of the spheroid area were obtained using Gen5 software.
Tumor spheroid cultures are a more physiological model of tumor growth than typical 2D cell culture. Temozolomide sensitive U87 (FIG. 20A) and Temozolomide insensitive U138 (FIG. 20B) glioblastoma cell lines were plated in low attachment round bottom 96-well plates and allowed to form tumor spheroids for 3 days (T0). At T0, spheroids were imaged using Lionheart™ (HCS) High-Content Imaging Systems (Biotek™) and then were exposed to increasing doses of either Temozolomide or OGM2. After 5 days of treatment the spheroids were imaged again (T5). The size (area) of the spheroids after 5 days of treatment was quantified, and the average size of the spheroids at TO is depicted in red.
A GPR68-positive allosteric modulator, Ogerin, was tested. U87glioblastoma cells were plated in low attachment round bottom 96-well plates and allowed to form tumor spheroids for 3 days (TO). These spheroids were treated with Vehicle (DMSO), 10 μM/20 μM Ogerin or 10 μM/20 μM Ogremorphin-2 (OGM2). The spheroids were placed in the Lionheart™ HCS equipped with environmental control (5% CO2 at 37° C.) and imaged every 12 hours.
Spheroids were formed over 3 days using low attachment 96-well round bottom plates and then treated with DMSO or OGM2 in either pH 8 buffered media or pH 6.2 buffered media and grown for 3 days. The size (area) of spheroids was measured in relative area units. […] This increase in growth was abrogated by OGM2.

zebrafish embryos = experiment: Acridine orange stain of zebrafish embryos (cell death); details: in vivo
BxPC-3 = experiment: Cell Titer-Glo viability, Pancreatic adenocarcinoma; type: cell-based
Description: (§1) OGM2 kills wide variety of cancer cell types. Cell sensitivity can be classified in to Very Sensitive (LC50<2 μM), Sensitive (LC50=2 to 10 μM), Mildly Sensitive (LC50>10 μM), and Refractory (no killing at 10 μM). The listed established cell were incubated with OGM2 at 2 μM or 10 μM for 72 hours under standard cell culture conditions, and relative cell number was assessed using Cell Titer-Glo Luminescent Cell Viability Assay (Promega™) following the manufacturer's instructions. Luminescence was determined using a Cytation 5 reader and Gen5 software package (BioTek™).
(§2) Cancer cells, which are very sensitive to killing by OGM2 (LCs <2 μM), with reported mRNA expression of GPR68 and the related proton sensing receptor GPR4. LC50's (concentrations causing 50% lethality) were determined using CellTiter-Glo (Promega™, G7570). Cells were plated in 12-well plates (CELLTREAT Scientific Products, 229112) in 1 ml of DMEM with high glucose, GlutaMAX, HEPES, or RPMI 1640 with Penicillin-Streptomycin (ThermoFisher™, 10564029, 11875119 and 15140122) and 10% FBS. Cells were incubated overnight at 37° C. in 5% CO2. Then 1 mL of fresh media was added with DMSO, OGM, or positive control (Erastin; APExBIO Technology, LLC, B1524) and cells incubated for 3 days. On the third day, all media was removed, cells were rinsed with 1×PBS, PBS was removed, and 200 μL of 1× Passive Lysis Buffer (Promega™, E1941) was added to each well. […]. Subsequently, 20 μL of lysate was added to 100 μL CellTiter-Glo™ reagent on a LUMITRAC 200 plate (Greiner™ bio-one, 82050-726). Plates were briefly spun down and read on a GloMax-Multi Detection System (Promega™).
(§3) The cells listed in the tables above were incubated with OGM2 at 2 μM or 10 μM for 72 hours under standard cell culture conditions, and relative cell number was assessed using Cell Titer-Glo Luminescent Cell Viability Assay (Promega™) following the manufacturer's instructions. Luminescence was determined using a Cytation 5 reader and Gen5 software package (BioTek™). RNA expression of GPR68 and GPR4 in the corresponding cancer cell lines are listed, according to the publicly available The Human Protein Atlas version 22.0 and Ensembl version 103.38 (see proteinatlas.org). The consensus normalized expression value (“nTPM”=normalize transcript per million) was calculated as the maximum nTPM value for each gene in the two data sources.

Panc02 = experiment: as above; type: cell-based
Description: as §1, §2, §3

T1 sequence (P51677 whole entry, species assumed): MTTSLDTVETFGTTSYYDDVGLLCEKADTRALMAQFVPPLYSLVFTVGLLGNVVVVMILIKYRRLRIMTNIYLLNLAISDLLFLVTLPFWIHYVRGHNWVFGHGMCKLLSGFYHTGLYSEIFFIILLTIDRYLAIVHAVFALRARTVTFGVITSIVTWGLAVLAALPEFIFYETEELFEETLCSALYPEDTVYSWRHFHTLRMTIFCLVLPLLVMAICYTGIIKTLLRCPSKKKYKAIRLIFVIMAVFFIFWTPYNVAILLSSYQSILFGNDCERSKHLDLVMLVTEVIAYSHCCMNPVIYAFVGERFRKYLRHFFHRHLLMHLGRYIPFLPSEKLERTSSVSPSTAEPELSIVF
T2 sequence (Q00537 whole entry): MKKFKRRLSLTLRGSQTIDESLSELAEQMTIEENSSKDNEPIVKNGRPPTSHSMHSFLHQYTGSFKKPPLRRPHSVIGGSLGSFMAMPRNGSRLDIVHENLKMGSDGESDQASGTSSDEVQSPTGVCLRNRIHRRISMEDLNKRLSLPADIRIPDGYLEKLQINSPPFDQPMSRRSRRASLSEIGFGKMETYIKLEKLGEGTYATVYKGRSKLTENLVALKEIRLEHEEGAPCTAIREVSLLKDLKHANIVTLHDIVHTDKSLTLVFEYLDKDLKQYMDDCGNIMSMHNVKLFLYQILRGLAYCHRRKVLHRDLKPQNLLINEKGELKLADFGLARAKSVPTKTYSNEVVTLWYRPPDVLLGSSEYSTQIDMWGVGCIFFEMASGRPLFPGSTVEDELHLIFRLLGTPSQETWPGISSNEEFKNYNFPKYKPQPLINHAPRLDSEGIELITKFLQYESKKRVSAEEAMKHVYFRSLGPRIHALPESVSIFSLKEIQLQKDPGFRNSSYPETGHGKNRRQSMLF

SMILES: CCc1ccc2c(c1)C1(NN=C(c3cccc4ccccc34)S1)C(=O)N2 (stereo not shown) [OGM1, 5-ethyl-5′-naphthalen-1-ylspiro[1H-indole-3,2′-3H-1,3,4-thiadiazole]-2-one]
- Antagonism (CCR3; 10 uM): −9.9
- Agonism (CCR3; 12.5 uM): 0.8
- remaining binding at 10 µM (PCTK2): 100%
- Antagonism (MRGX2; 10 uM): 5.1
- Agonism (MRGX2; 12.5 uM): −0.1
- remaining binding at 10 µM (NEK1): 83%
- remaining binding at 10 µM (HUNK): 83%
- remaining binding at 10 µM (PIPSK1A): 100%
- remaining binding at 10 µM (TXK): 99%
- remaining binding at 10 µM [1]: 84%

SMILES: CCc1ccc2c(c1)C1(NN=C(c3ccccc3)S1)C(=O)N2 (stereo not shown) [OGM2]
- spheroid growth rate (U87 spheroids): impaired spheroid growth rate
- spheroid growth, comparison with TMZ (U87 spheroids): more potent inhibitor of U87 spheroid growth than TMZ
- increase in spheroid growth at pH 6.2 versus pH 8 (U87 spheroids; 3 days): abrogated
- excess cell death (zebrafish embryos): did not induce excess cell death in zebrafish larvae
- Class (BxPC-3): Mildly
- % Survival 2 μM OGM (BxPC-3; 72 hours): 81.5%
- % Survival 10 μM OGM (BxPC-3; 72 hours): 83.8%
- CC50 (BxPC-3; Homo sapiens, BXPC-3, 72 hours, read-out: LC50 (the source's name)): > 10 µM
- Class (Panc02): Sensitive (Sensitive (LC50=2 to 10 μM))
- % Survival 2 μM OGM (Panc02; 72 hours): 72.5%
- % Survival 10 μM OGM (Panc02; 72 hours): 40.5%
- CC50 (Panc02; Mus musculus, Panc02, 72 hours, read-out: LC50 (the source's name)): 2 to 10 µM
